Several values for one entry are separate records, joined by “and”; a condition that tells them apart may be missing. Identical values can stand only once. Like-named read-outs stand apart in the source and are kept apart here.
What was measured:
[1] = Study 2: pharmacokinetics of oral irinotecan and M1, 5-20 mg/m^2 per day for 10 days during a 21 day cycle; conditions: for AUC24 / Cmax: mean
[2] = Simple Emax model of exposure (AUCinf, Cmax) versus dose
[3] = Study 1: pharmacokinetics of oral irinotecan and M1, 5-30 mg/m^2 per day for five days during a 21 day cycle; conditions: for AUC24 / Cmax: mean
[4] = for AUC24 h / Cmax / Tmax: N = 3
Protocol: A phase 1 dose escalation study was performed to determine the MTD and DLT of orally administered irinotecan in combination with 15 mg (on day 1 of a 21-day cycle) of HM30181A. The study was performed on cohorts of 3-6 subjects with advanced malignancies. Subjects had Hb (hemoglobin count) 9 gm/dL, ANC (absolute neutrophil count) 1.5×10^9/L, and platelets 100×10^9/L, as well as adequate hepatic and renal function, and ECOG (Eastern Cooperative Oncology Group Performance Status) 0-1, and were not homozygous for UGT1A1*28.

[5] = IV dose of 340 mg/m^2; reference line of FIG. 5A; cited from earlier work
[6] = Tablet, dose 120 (mg), Mean (CV %), N 3, plasma
[7] = Tablet, dose 160 (mg), Mean (CV %), N 3, plasma
[8] = Tablet, dose 200 (mg), Mean (CV %), N 3, plasma
[9] = Tablet, dose 240 (mg), Mean (CV %), N 3, plasma
[10] = Tablet, dose 280 (mg), Mean (CV %), N 3, plasma
[11] = Tablet, dose 320 (mg), Mean (CV %), N 3, plasma
[12] = single oral dose 240 mg/m^2, individual subjects 1-3, plasma
[13] = single oral dose 280 mg/m^2, individual subjects 4-6, plasma
[14] = single oral dose 320 mg/m^2, individual subjects 7-9, plasma
[15] = dose 240 mg/m^2 oral irinotecan + 15 mg HM30181A
[16] = dose 280 mg/m^2 oral irinotecan + 15 mg HM30181A
[17] = dose 320 mg/m^2 oral irinotecan + 15 mg HM30181A

## CCc1c2c(nc3ccc(O)cc13)-c1cc3c(c(=O)n1C2)COC(=O)[C@]3(O)CC [Compound M1]
Tablet, dose 120 (mg), Mean (CV %), N 2, plasma
  AUC0-inf: 274 (18.3) ng*hr/mL
[6]
  AUC0-24: 168 (32.9) ng*hr/mL
  Cmax: 23.1 (58.4) ng/mL
  Tlast: 56.0 h
Tablet, dose 120 (mg), N 3, plasma
  Tmax*: 3.00 h
[7]
  AUC0-24: 156 (22.6) ng*hr/mL
  AUC0-inf: 235 (13.4) ng*hr/mL
  Cmax: 25.0 (58.1) ng/mL
  Tlast: 48.0 (21.7) hr
Tablet, dose 160 (mg), N 3, plasma
  Tmax*: 3.00 h
[8]
  AUC0-24: 185 (66.3) ng*hr/mL
  AUC0-inf: 468 (90.0) ng*hr/mL
  Cmax: 23.0 (102) ng/mL
  Tlast: 88.0 (83.3) hr
Tablet, dose 200 (mg), N 3, plasma
  Tmax*: 3.00 h
[9]
  AUC0-24: 264 (66.4) ng*hr/mL
  Cmax: 28.3 (67.3) ng/mL
  Tlast: 96.0 (66.1) hr
Tablet, dose 240 (mg), N 1, plasma
  AUC0-inf: 224 ng·h/mL
Tablet, dose 240 (mg), N 3, plasma
  Tmax*: 3.00 h
[10]
  AUC0-24: 293 (60.0) ng*hr/mL
  AUC0-inf: 468 (67.3) ng*hr/mL
  Cmax: 37.6 (42.4) ng/mL
  Tlast: 72.0 (0) hr
Tablet, dose 280 (mg), N 3, plasma
  Tmax*: 1.5 h
[11]
  AUC0-24: 300 (42.3) ng*hr/mL
  Cmax: 38.5 (58.7) ng/mL
  Tlast: 72.0 (0) hr
Tablet, dose 320 (mg), N 1, plasma
  AUC0-inf: 349 ng·h/mL
Tablet, dose 320 (mg), N 3, plasma
  Tmax*: 2.00 h
Dose 200 mg/m^2
  Observed Mean (Cmax): 23 ng/mL
  Observed Mean AUCinf: 468 ng·h/mL
Dose 240 mg/m^2
  Observed Mean (Cmax): 28.3 ng/mL
  Observed Mean AUCinf: 224 ng·h/mL
Dose 280 mg/m^2
  Observed Mean (Cmax): 37.6 ng/mL
  Observed Mean AUCinf: 468 ng·h/mL
Dose 320 mg/m^2
  Observed Mean (Cmax): 38.7 ng/mL
  Observed Mean AUCinf: 349 ng·h/mL
Dose level of 200 mg/m^2 and above
  subjects with M1 exposures (AUC24) comparable between oral irinotecan and IV irinotecan: 4 of 9
Oral solution administration
  M1 Cmax compared with IV irinotecan: within the range of 125 mg/m^2 dosed IV irinotecan
plasma
  early enterohepatic recycling (EHR) in plasma concentration profile, time: 5.5 h
  possible enterohepatic recycling (EHR) in plasma concentration profile, time: 50 h
[12]
  AUC24: 133 ng·h/mL and 463 ng·h/mL and 195 ng·h/mL
  AUCinf: 224 ng·h/mL
  AUClast: 185 ng·h/mL and 636 ng·h/mL and 376 ng·h/mL
  Cmax: 17.1 ng/mL and 50.3 ng/mL and 17.5 ng/mL
  Tlast: 48 h and 168 h and 72 h
  Tmax: 3 h
[13]
  AUC24: 497 ng·h/mL and 190 ng·h/mL and 194 ng·h/mL
  AUCinf: 831 ng·h/mL and 273 ng·h/mL and 300 ng·h/mL
  AUClast: 783 ng·h/mL and 256 ng·h/mL and 282 ng·h/mL
  Cmax: 55.4 ng/mL and 33.0 ng/mL and 24.5 ng/mL
  Tlast: 72 h
  Tmax: 1 h and 1.5 h and 3 h
[14]
  AUC24: 212 ng·h/mL and 445 ng·h/mL and 242 ng·h/mL
  AUCinf: 349 ng·h/mL
  AUClast: 322 ng·h/mL and 713 ng·h/mL and 410 ng·h/mL
  Cmax: 28.1 ng/mL and 64.8 ng/mL and 23.2 ng/mL
  Tlast: 72 h
  Tmax: 1.5 h and 2 h and 3 h
Tablet formulation, FIG. 5B
  M1 Cmax compared with IV irinotecan: in a range of that observed with IV irinotecan dosage of 340 mg/m^2
[1]; 5-20 mg/m^2 per day for 10 days during a 21 day cycle
  pharmacokinetics versus dose: increased proportionally with dose
[1]; Day 1, dose group 5 mg/m^2
  AUC24: 41.40 ng·h/mL
  Cmax: 7.08 ng/mL
[1]; Day 1, dose group 10 mg/m^2
  AUC24: 43.34 ng·h/mL
  Cmax: 5.04 ng/mL
[1]; Day 1, dose group 15 mg/m^2
  AUC24: 85.61 ng·h/mL
  Cmax: 10.19 ng/mL
[1]; Day 1, dose group 20 mg/m^2
  AUC24: 54.44 ng·h/mL
  Cmax: 4.15 ng/mL
[1]; Day 12, dose group 5 mg/m^2
  AUC24: 42.53 ng·h/mL
  Cmax: 6.10 ng/mL
[1]; Day 12, dose group 10 mg/m^2
  AUC24: 38.17 ng·h/mL
  Cmax: 4.04 ng/mL
[1]; Day 12, dose group 15 mg/m^2
  AUC24: 144.14 ng·h/mL
  Cmax: 18.00 ng/mL
[1]; Day 12, dose group 20 mg/m^2
  AUC24: 71.97 ng·h/mL
  Cmax: 7.63 ng/mL
[2]; dose 200 mg/m^2
  Predicted AUCinf: 423
  Predicted Cmax: 29.2
[2]; dose 240 mg/m^2
  Predicted AUCinf: 464
  Predicted Cmax: 31.9
[2]; dose 280 mg/m^2
  Predicted AUCinf: 499
  Predicted Cmax: 34.1
[2]; dose 320 mg/m^2
  Predicted AUCinf: 528
  Predicted Cmax: 38.8
[3]; 5-30 mg/m^2 per day for five days during a 21 day cycle
  pharmacokinetics versus dose: increased proportionally with dose
[3]; Day 1, dose group 5 mg/m^2
  AUC24: 49.83 ng·h/mL
  Cmax: 6.07 ng/mL
[3]; Day 1, dose group 10 mg/m^2
  AUC24: 46.04 ng·h/mL
  Cmax: 7.84 ng/mL
[3]; Day 1, dose group 15 mg/m^2
  AUC24: 50.29 ng·h/mL
  Cmax: 5.33 ng/mL
[3]; Day 1, dose group 20 mg/m^2
  AUC24: 63.56 ng·h/mL
  Cmax: 8.92 ng/mL
[3]; Day 1, dose group 25 mg/m^2
  AUC24: 143.97 ng·h/mL
  Cmax: 17.10 ng/mL
[3]; Day 1, dose group 30 mg/m^2
  AUC24: 83.64 ng·h/mL
  Cmax: 7.31 ng/mL
[3]; Day 5, dose group 5 mg/m^2
  AUC24: 68.61 ng·h/mL
  Cmax: 5.84 ng/mL
[3]; Day 5, dose group 10 mg/m^2
  AUC24: 51.40 ng·h/mL
  Cmax: 6.15 ng/mL
[3]; Day 5, dose group 15 mg/m^2
  AUC24: 118.29 ng·h/mL
  Cmax: 11.14 ng/mL
[3]; Day 5, dose group 20 mg/m^2
  AUC24: 119.38 ng·h/mL
  Cmax: 11.73 ng/mL
[3]; Day 5, dose group 25 mg/m^2
  AUC24: 178.58 ng·h/mL
  Cmax: 14.93 ng/mL
[3]; Day 5, dose group 30 mg/m^2
  AUC24: 308.27 ng·h/mL
  Cmax: 13.44 ng/mL
[4]; [15]
  AUC24 h: 264 ng·h/mL
  Cmax: 28.3 ng/mL
  Tmax: 3.0 h
[4]; [16]
  AUC24 h: 293 ng·h/mL
  Cmax: 37.6 ng/mL
[4]; [17]
  AUC24 h: 300 ng·h/mL
  Cmax: 38.5 ng/mL
  Tmax: 2.0 h
[4]; oral administration of HM30181A in combination with irinotecan tablets
  concentrations of SN-38 reached: pharmacologically active concentrations

## CCc1c2c(nc3ccc(OC(=O)N4CCC(N5CCCCC5)CC4)cc13)-c1cc3c(c(=O)n1C2)COC(=O)[C@]3(O)CC [IV dosed irinotecan]
[5]
  Cmax: 3392 ng/mL
